This assay addresses Human immunodeficiency virus type 1 integrase (Human immunodeficiency virus 1, UniProt Q7ZJM1). The assay can be described thus: Inhibition of HIV1 integrase.
Sequence of Human immunodeficiency virus type 1 integrase (Q7ZJM1 whole entry): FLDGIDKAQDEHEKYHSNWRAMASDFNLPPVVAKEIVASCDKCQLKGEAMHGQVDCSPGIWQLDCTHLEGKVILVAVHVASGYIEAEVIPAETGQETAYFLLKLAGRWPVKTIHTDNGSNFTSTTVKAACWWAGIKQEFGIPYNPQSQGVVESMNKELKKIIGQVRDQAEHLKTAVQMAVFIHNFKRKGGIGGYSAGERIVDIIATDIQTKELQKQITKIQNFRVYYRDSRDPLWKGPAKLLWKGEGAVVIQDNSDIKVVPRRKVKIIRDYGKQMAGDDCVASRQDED
In general, IC50 refers to the midpoint of a concentration-inhibition curve. A low value points to greater potency in that assay. `N#CC(=Cc1ccc(-c2ccc(O)c(C(=O)O)c2)o1)c1nc2ccccc2[nH]1`: the half-inhibitory concentration (IC50) turned out to be 68.7 µM. For the molecule `N#C/C(=C\c1ccc(-c2cccc([N+](=O)[O-])c2)o1)c1nc2ccccc2o1`, the IC50 is above 280 µM. In turn, `N#CC(=Cc1ccc(-c2ccc(Cl)cc2)o1)c1nc2ccccc2[nH]1` showed an IC50 above 289 µM. `NC(=O)/C(=C\c1ccc(-c2ccc(Cl)cc2[N+](=O)[O-])o1)c1nc2ccccc2[nH]1` came in with an IC50 above 244 µM.

`Cc1c(-c2ccc(C=C(C#N)c3nc4ccccc4[nH]3)o2)cccc1[N+](=O)[O-]` yielded an IC50 of 85.8 µM. In other words, the double-digit micromolar range.

With `COc1c(C)cc(-c2ccc(C=C(C#N)c3nc4ccccc4[nH]3)o2)cc1C`, the IC50 is above 271 µM. `C/C(=C\c1ccc(-c2ccc(Cl)cc2[N+](=O)[O-])o1)c1nc2ccccc2[nH]1` returned a 50% inhibitory concentration (IC50) above 263 µM.

Turning to `N#CC(=Cc1ccc(-c2cccc([N+](=O)[O-])c2)o1)c1nc2ccccc2[nH]1`, the IC50 was above 281 µM. The molecule `O=[N+]([O-])c1ccccc1-c1ccc(/C=C/c2nc3ccccc3[nH]2)o1` yielded an IC50 above 302 µM. For `N#CC(=Cc1ccc(-c2cc([N+](=O)[O-])ccc2Cl)o1)c1nc2ccccc2[nH]1` the value was 58.7 µM; for `N#CC(=Cc1ccc(-c2ccc(F)cc2C(=O)O)o1)c1nc2ccccc2[nH]1`, above 268 µM.

`N#C/C(=C\c1ccc(-c2c(Cl)cccc2C(F)(F)F)o1)c1nc2ccccc2o1` showed a 50% inhibitory concentration (IC50) above 241 µM.

`N#C/C(=C\c1ccc(-c2c(Cl)cccc2C(F)(F)F)o1)c1nc2ccccc2s1` registered an IC50 above 232 µM. Turning to `O=[N+]([O-])c1cccc(-c2ccc(/C=C/c3nc4ccccc4[nH]3)o2)c1`, inhibition was half-maximal at 12 µM (IC50). Then `N#CC(=Cc1ccc(-c2ccc(C(=O)O)cc2)o1)c1nc2ccccc2[nH]1`, with above 281 µM; and `N#CC(=Cc1ccc(-c2cccc(C(=O)O)c2)o1)c1nc2ccccc2[nH]1`, with 164 µM. Then `COc1c(C)cc(-c2ccc(/C=C/c3nc4ccccc4[nH]3)o2)cc1C`, with above 291 µM. As to `COc1ccc(-c2ccc(C=C(C#N)c3nc4ccccc4[nH]3)o2)cn1`, the IC50 was above 292 µM. Then `N#CC(=Cc1ccc(-c2ccc(Cl)c(C(=O)O)c2)o1)c1nc2ccccc2[nH]1`, with 90.4 µM; and `Cc1ccc2[nH]c(C(C#N)=Cc3ccc(-c4ccc(Cl)cc4C(=O)O)o3)nc2c1`, with 36.2 µM. `Cc1ccc(C(=O)O)cc1-c1ccc(C=C(C#N)c2nc3ccccc3[nH]2)o1` yielded an IC50 of 39.8 µM. Then `N#CC(=Cc1ccc(-c2ccccc2[N+](=O)[O-])o1)c1nc2ccccc2[nH]1`, with above 281 µM; and `N#CC(=Cc1ccc(-c2ccc(C(=O)O)c(O)c2)o1)c1nc2ccccc2[nH]1`, with 70.3 µM; and `N#C/C(=C\c1ccc(-c2ccc(Cl)cc2[N+](=O)[O-])o1)c1nc2ccccc2s1`, with above 245 µM.

Consider `Cc1c(-c2ccc(/C=C/c3nc4ccccc4[nH]3)o2)cccc1[N+](=O)[O-]`, for which the 50% inhibitory concentration (IC50) was above 290 µM. Turning to `N#C/C(=C\c1ccc(-c2cccc([N+](=O)[O-])c2)o1)c1nc2ccccc2s1`, the IC50 was above 268 µM. For `CC(C)(C)OC(=O)Nc1ccc(-c2ccc(C=C(C#N)c3nc4ccccc4[nH]3)o2)cc1` the value was above 235 µM.

With `O=[N+]([O-])c1cc(Cl)ccc1-c1ccc(/C=C/c2nc3ccccc3[nH]2)o1`, the IC50 was above 273 µM.

`FC(F)(F)c1cccc(Cl)c1-c1ccc(/C=C/c2nc3ccccc3[nH]2)o1` displayed an IC50 above 257 µM. For `N#CC(=Cc1ccc(-c2cc(C(F)(F)F)ccc2Cl)o1)c1nc2ccccc2[nH]1`, the IC50 amounted to 31.3 µM.

Values taken from ChEMBL document CHEMBL1149702, “Toward novel HIV-1 integrase binding inhibitors: molecular modeling, synthesis, and biological studies” (Bioorg Med Chem Lett, 2007).
